18 compounds from ChEMBL document CHEMBL1154520, “Synthesis and antitumor activity of novel 20s-camptothecin analogues” (Bioorg Med Chem Lett, 2009) can be followed below.

The subject of series [1] is PC-3. Put plainly: Cytotoxicity against human PC3 cells by MTT assay. The format is functional, cell-based. On the technique in general: Formazan colour is commonly taken as a measure of viable cells.
Series [2] is described as follows: Chemical stability assessed as half life in PBS at pH 7.4 by HPLC. Format: physicochemical.
The subject of series [3] is MCF7. Put plainly: Cytotoxicity against human MCF7 cells by MTT assay. Format: functional, cell-based.
Series [4] has as its system HCT-8. The series is described as follows: Cytotoxicity against human HCT8 cells by MTT assay. Format: functional, cell-based.
The test system of series [5] is HCT-8. Put plainly: Antitumor activity against human HCT8 xenografted in BALB/c nu/nu mouse assessed as tumor inhibition rate at 20 mg/kg, ip q3d for 3 days. The format is functional. Particulars: HCT-8, ip, 72 h, route intraperitoneal. Background: A xenograft is tissue or cells of one species grown in another, often human tumour cells in immunodeficient mice.
In series [6] the test system is Mus musculus. The series is described as follows: Toxicity to BALB/c nu/nu mouse assessed as mortality at 20 mg/kg, ip q3d for 3 days. On the set-up: dose 20 mg/kg, route intraperitoneal. Particulars: in vivo, 72 h. Format: organism-based.
The subject of series [7] is Mus musculus. The series is described as follows: Toxicity to BALB/c nu/nu mouse assessed as mortality at 10 mg/kg, ip q3d for 3 days. Conditions: in vivo, 72 h. On the set-up: dose 10 mg/kg, route intraperitoneal. The format is organism-based.
Series [8] has as its system HCT-8. The series is described as follows: Antitumor activity against human HCT8 xenografted in BALB/c nu/nu mouse assessed as change in body weight at 20 mg/kg, ip q3d for 3 days. Format: functional. Particulars: route intraperitoneal.
Series [9] has as its system HCT-8. Put plainly: Antitumor activity against human HCT8 xenografted in BALB/c nu/nu mouse assessed as tumor inhibition rate at 10 mg/kg, ip q3d for 3 days. Format: functional. Conditions: HCT-8, ip, 72 h, route intraperitoneal.
The subject of series [10] is HCT-8. Put plainly: Antitumor activity against human HCT8 xenografted in BALB/c nu/nu mouse assessed as change in body weight at 10 mg/kg, ip q3d for 3 days. Particulars: route intraperitoneal. The format is functional.
Series [11] has as its system HCT-8. The series is described as follows: Antitumor activity against human HCT8 xenografted in BALB/c nu/nu mouse assessed as tumor inhibition rate at 5 mg/kg, ip q3d for 3 days. Format: functional. Particulars: HCT-8, ip, 72 h, route intraperitoneal.
The subject of series [12] is Mus musculus. The series is described as follows: Toxicity to BALB/c nu/nu mouse assessed as mortality at 5 mg/kg, ip q3d for 3 days. Format: organism-based. On the set-up: dose 5 mg/kg, route intraperitoneal. Conditions: in vivo, 72 h.
The subject of series [13] is HCT-8. Put plainly: Antitumor activity against human HCT8 xenografted in BALB/c nu/nu mouse assessed as change in body weight at 5 mg/kg, ip q3d for 3 days. Particulars: route intraperitoneal. Format: functional.

pIC50: −log10 of the molar value.

In general, pIC50 refers to −log10 of the IC50, conventionally taken in molar units. Lower therefore signals a large IC50. One may read the half-life as the time in which the quantity being followed falls by half. Take `CC[C@@]1(OC(=O)CO)C(=O)OCc2c1cc1n(c2=O)Cc2cc3ccccc3nc2-1`: the pIC50 is 7.52 in [1], 4.98 in series [3] and 5.52 in series [4]. Also, in series [2], the half-life is more than 48 h.
On the same counts, the results for `CC[C@@]1(OC(=O)C(C)n2ccnn2)C(=O)OCc2c1cc1n(c2=O)Cc2cc3ccccc3nc2-1` (stereo partly drawn) are 6.23, 6.80, 6.32 and 13 h.
The like results for `CC[C@@]1(OC(=O)C(C)n2cncn2)C(=O)OCc2c1cc1n(c2=O)Cc2cc3ccccc3nc2-1` (stereo partly drawn) were, in that order, 6.36, 6.19, 6.29 and 14 h.
One may read the inhibition in vivo as the change of the read-out against control, counted positive when it falls. Turning to `CC[C@@]1(OC(=O)Cn2ccnc2)C(=O)OCc2c1cc1n(c2=O)Cc2cc3ccccc3nc2-1`, the inhibition in vivo at 20 mg/kg in [5] came out at 46.2%. Moreover, the Activity entry in series [6] was “Non-toxic”; in series [7], “Non-toxic”; in series [8], 1%; in series [10] it was 6%. In addition, the values for the pIC50 in series [1], in series [3] and in series [4] were 6.68, 6.05 and 6.22, respectively. Besides, the half-life in series [2] was 24 h. For the same compound, in series [9], the inhibition in vivo at 10 mg/kg was found to be 27.8%.
For `CC[C@@]1(OC(=O)Cn2ccnn2)C(=O)OCc2c1cc1n(c2=O)Cc2cc3ccccc3nc2-1`, the pIC50 in series [1] was 6.80; in series [3] it was 5.92; in series [4] it was 6.42. Moreover, the half-life in series [2] is 24 h.
On to `CC[C@@]1(OC(=O)COc2cc(C(F)(F)F)ncn2)C(=O)OCc2c1cc1n(c2=O)Cc2cc3ccccc3nc2-1`, for which, in [5], the inhibition in vivo at 20 mg/kg is 49.3%. Moreover, the Activity result in [6] is on record as “Non-toxic”; in series [7] it was “Non-toxic”; in series [8], 12%; in [10], 36%. For the same compound, the pIC50 is 5.87 in [1], 5.75 in series [3] and 5.82 in [4]. In addition, in series [2], the half-life is 14 h. In series [9], the inhibition in vivo at 10 mg/kg came to 25.4%.
For `CC[C@@]1(OC(=O)C(C)Oc2cc(C(F)(F)F)ncn2)C(=O)OCc2c1cc1n(c2=O)Cc2cc3ccccc3nc2-1` (stereo partly drawn), the negative logarithm of the IC50 (pIC50) in series [1] is 6.49; in [3] it was 6.57; in series [4] it was 5.95. The half-life in series [2] was 9 h.
Take `CC[C@@]1(OC(=O)Cn2cccn2)C(=O)OCc2c1cc1n(c2=O)Cc2cc3ccccc3nc2-1`: the inhibition in vivo at 20 mg/kg in series [5] is 75.6%. The Activity entry in [6] is “Non-toxic”; in series [7], “Non-toxic”; in series [8], 8%; in [10] it was 7%. For the same compound, the pIC50 was 6.80 in [1], 6.92 in [3] and 6.21 in series [4]. Besides, the half-life in [2] was more than 48 h. In addition, the inhibition in vivo at 10 mg/kg in [9] is 35.3%.
Turning to `CC[C@@]1(OC(=O)C(C)n2cccn2)C(=O)OCc2c1cc1n(c2=O)Cc2cc3ccccc3nc2-1` (stereo partly drawn), the inhibition in vivo at 20 mg/kg in series [5] was 92.9%. The Activity result in series [7] was “Non-toxic”; in series [8], -5%; in series [10], -2%. Also, the pIC50 in series [1] was 6.89; in [3], 6.09; in series [4] it was 6.64. Also, the half-life in series [2] was more than 48 h. Also, in series [9], the inhibition in vivo at 10 mg/kg came to 77.1%.
On to `CC[C@@]1(OC(=O)C(C)O)C(=O)OCc2c1cc1n(c2=O)Cc2cc3ccccc3nc2-1` (stereo partly drawn), for which the pIC50 in series [1] was 6.30; in series [3], 6.25; in [4] it was 6.09.
As for `CC[C@@]1(OC(=O)C(C)n2ccnc2)C(=O)OCc2c1cc1n(c2=O)Cc2cc3ccccc3nc2-1` (stereo partly drawn), the negative logarithm of the IC50 (pIC50) was 6.42 in series [1], 6.96 in series [3] and 6.23 in series [4]. For the same compound, in series [2], the half-life is 18 h.
Take `CC[C@@]1(OC(=O)Cn2cncn2)C(=O)OCc2c1cc1n(c2=O)Cc2cc3ccccc3nc2-1`: the pIC50 is 6.82 in series [1], 6.16 in [3] and 6.13 in series [4]. Further, the half-life in [2] was 45 h.
Regarding `CC[C@@]1(OC(=O)C[n+]2cccc(C(C)=O)c2)C(=O)OCc2c1cc1n(c2=O)Cc2cc3ccccc3nc2-1`, the negative logarithm of the IC50 (pIC50) in [1] was 6.27; in [3], 5.46; in [4], 5.59.
On the same counts, the results for `CC[C@@]1(OC(=O)C[n+]2cccc(C(=O)O)c2)C(=O)OCc2c1cc1n(c2=O)Cc2cc3ccccc3nc2-1` are 6.26, 5.67 and 6.12.
For `CC[C@@]1(OC(=O)C[n+]2cccc(C)c2)C(=O)OCc2c1cc1n(c2=O)Cc2cc3ccccc3nc2-1`, the results for the pIC50 in series [1], in [3] and in [4] were 6.22, 5.42 and 5.42, respectively.
On to `CC[C@@]1(OC(=O)C[n+]2cccc(CO)c2)C(=O)OCc2c1cc1n(c2=O)Cc2cc3ccccc3nc2-1`, for which the figures for the pIC50 in [1], in series [3] and in [4] were 6.10, 5.59 and 5.68, respectively.
For `CC[C@@]1(OC(=O)C[n+]2cccc(O)c2)C(=O)OCc2c1cc1n(c2=O)Cc2cc3ccccc3nc2-1`, the values for the pIC50 in [1], in [3] and in [4] were 6.96, 5.42 and 5.61, respectively.
Take `CC[C@@]1(O)C(=O)OCc2c1cc1n(c2=O)Cc2cc3c(CN(C)C)c(O)ccc3nc2-1` [TOPOTECAN]: the pIC50 in series [1] was 5.40; in [3], 5.26; in [4], 5.44. The inhibition in vivo at 5 mg/kg in series [11] came out at 62%. Moreover, in [9], the inhibition in vivo at 10 mg/kg was 92.5%. Moreover, the figures for the Activity entry in [12], in [13] and in series [10] were “Non-toxic”, -3% and -29%, respectively.
